Laboratory results as given in publication PMC4908180 (American Journal of Human Genetics, 2016).

Target: 6His-tagged human FADS isoform 2 (FADS2), WT (Homo sapiens, UniProt Q8NFF5)
Test: UV/Vis spectra
Type: binding
Settings: reaction product, non-covalent; bound flavin as purified

Sequence of 6His-tagged human FADS isoform 2 (FADS2), WT (Q8NFF5 98-587): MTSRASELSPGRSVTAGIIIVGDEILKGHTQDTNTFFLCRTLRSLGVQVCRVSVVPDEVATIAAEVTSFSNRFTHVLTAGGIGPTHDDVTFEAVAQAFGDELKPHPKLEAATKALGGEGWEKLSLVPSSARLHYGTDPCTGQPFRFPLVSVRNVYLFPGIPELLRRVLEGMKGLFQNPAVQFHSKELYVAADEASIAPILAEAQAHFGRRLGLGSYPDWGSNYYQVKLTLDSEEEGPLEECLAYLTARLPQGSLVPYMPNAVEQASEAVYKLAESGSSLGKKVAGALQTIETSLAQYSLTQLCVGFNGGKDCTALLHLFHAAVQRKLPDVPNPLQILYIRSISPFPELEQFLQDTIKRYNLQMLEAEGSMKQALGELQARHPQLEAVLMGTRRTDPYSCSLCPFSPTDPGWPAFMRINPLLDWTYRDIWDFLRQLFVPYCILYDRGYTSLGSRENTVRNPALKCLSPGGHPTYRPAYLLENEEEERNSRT

Cc1cc2nc3c(=O)[nH]c(=O)nc-3n(C[C@H](O)[C@H](O)[C@H](O)COP(=O)(O)OP(=O)(O)OC[C@H]3O[C@@H](n4cnc5c(N)ncnc54)[C@H](O)[C@@H]3O)c2cc1C [FAD]
UV/Vis spectra (FAD saturation of purified protein): Spectrophotometric analysis of the purified WT, p.Ser495del, and p.Arg530Cys FADS2 proteins
